Experimental data reported in patent US20080194652A1 (priority 2004, published 2008).

Legend:
resistant P. falciparum = conditions: literature; cited from earlier work
P. falciparum strain W2 = assay: 72 hour microplate growth assay, SybrGreen I-based fluorescence readout, drug-resistance reversal; format: cell-based, Plasmodium falciparum; conditions: for decrease of CQ EC50 (chloroquine resistance reversal): with chloroquine, equimolar comparison of (+) and (+/−) CP; for resistance reversal activity inferred from comparison of (+/−) with (+): indirect assessment, chloroquine, chloroquine and quinine
Experimental: (§1) Results were determined by SybrGreen I-based fluorescence assay.
(§2) This indirect assessment was required because only the antihistaminically-active (+) and (+/−) forms are available.

P. falciparum strain 7G8 = assay: as above; format: cell-based, Plasmodium falciparum; conditions: for decrease of CQ EC50 (chloroquine resistance reversal): with chloroquine, equimolar comparison of (+) and (+/−) CP; for resistance reversal activity inferred from comparison of (+/−) with (+): indirect assessment, chloroquine, chloroquine and quinine
Experimental: as §1, §2

[1] = system: CQ-resistant P. falciparum infection; conditions: cited from earlier work
rodent malaria = conditions: in vivo; cited from earlier work
Plasmodium falciparum = assay: in vitro drug-resistance reversal, strain not stated; format: cell-based
[2] = system: cardiac electrophysiology; conditions: cited from earlier work
[3] = in vivo; cited from earlier work
[4] = listed as (+/−)chlorpheniramine
[5] = with quinine, equimolar comparison

In the case of `CN(C)CCC(c1ccc(Cl)cc1)c1ccccn1` (racemic) [(+/−) CP, chlorpheniramine], the “chloroquine resistance reversal in vitro” value (resistant P. falciparum) is listed as “demonstrated effectiveness”, the “decrease of CQ EC50 (chloroquine resistance reversal)” value (“decrease of CQ EC50” below) (P. falciparum strain W2) is listed as “at least equivalent to (+) CP” and the “decrease of CQ EC50” value (P. falciparum strain W2; [4]) is listed as “equivalent or slightly superior to the (+) isomer”. For the same compound, the quinine resistance reversal (P. falciparum strain W2; [5]) was “equivalent or slightly superior to the (+) isomer”, the “decrease of CQ EC50” value (P. falciparum strain 7G8) was “at least equivalent to (+) CP” and the “decrease of CQ EC50” value (P. falciparum strain 7G8; [4]) was “equivalent or slightly superior to the (+) isomer”. For the same compound, the quinine resistance reversal (P. falciparum strain 7G8; [5]) was “equivalent or slightly superior to the (+) isomer”, the “drowsiness in clinical trials” value ([1]; in vivo) was “drowsiness was consistently found” and the “effectiveness in rodent malaria models” value (rodent malaria) was “demonstrated effectiveness”.
In the case of `CN(C)CCC(c1ccc(Cl)cc1)c1ccccn1` (single isomer, unassigned; (-)) [(−) CP, (−) chlorpheniramine], the “resistance reversal activity inferred from comparison of (+/−) with (+)” value (from here on “resistance reversal activity inferred”) (P. falciparum strain W2) is reported as “active”, the “resistance reversal activity inferred” value (P. falciparum strain W2; listed as (−)chlorpheniramine) is reported as “must be active” and the “resistance reversal activity inferred” value (P. falciparum strain 7G8) is reported as “active”. The “resistance reversal activity inferred” value (P. falciparum strain 7G8; listed as (−)chlorpheniramine) was “must be active”, the chloroquine resistance reversal (Plasmodium falciparum; inferred for the (−) isomer) was “reverses” and the quinine resistance reversal (Plasmodium falciparum; inferred for the (−) isomer) was “reverses”. The “change of cardiac electrophysiology” value [2] was “only at in vitro concentrations far above those needed to restore chloroquine sensitivity”.
In the case of `CN(C)CC[C@@H](c1ccc(Cl)cc1)c1ccccn1` [(+) CP, (+) chlorpheniramine], the “decrease of CQ EC50” value (P. falciparum strain W2) is reported as “active” and the “decrease of CQ EC50” value (P. falciparum strain 7G8) is reported as “active”.
For `CN(C)CCC(c1ccc(Br)cc1)c1ccccn1` (stereo not shown) [brompheniramine], the chloroquine resistance reversal (Plasmodium falciparum; with chloroquine, in vitro) was “chloroquine resistance reversal agents”.
For `CNCCCN1c2ccccc2CCc2ccccc21` [desipramine], the “chloroquine resistance reversal in vitro” value (resistant P. falciparum) is given as “reversed chloroquine resistance”, the “clinical outcome / cure rates” value ([1]; co-administered with chloroquine, clinical trials) is given as “ineffective” and the “chloroquine resistance reversal in primate animal trial” value [3] is given as “reversed chloroquine resistance”.
For `CN(C)CCC(c1ccc(F)cc1)c1ccccn1` (stereo not shown) [flupheniramine], the chloroquine resistance reversal (Plasmodium falciparum; with chloroquine, in vitro) was “chloroquine resistance reversal agents”.
With `CN(C)CCC(c1ccccc1)c1ccccn1` (stereo not shown) [pheniramine] the chloroquine resistance reversal (Plasmodium falciparum; with chloroquine, in vitro) was “chloroquine resistance reversal agents”.
For `COc1ccc(CCN(C)CCCC(C#N)(c2ccc(OC)c(OC)c2)C(C)C)cc1OC` (stereo not shown) [verapamil], the “chloroquine resistance reversal in vitro” value (resistant P. falciparum) is given as “partially restored chloroquine sensitivity”.
